Like-named read-outs stand apart in the source and are kept apart here.
Assays:
Type in all cases: cell-based
[1] = system: Proteus mirabilis (PMI) isolates; test: microbe, parasite or virus in culture; conditions: for MIC: Proteus mirabilis, read-out: MIC
How it was run: (§1)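 Inoculum 5·10^5 CFU/mL (final), log phase, ca-MHB; 16-20 h, 35° C, ambient air. MIC = lowest conc. with no visible growth; ATB MIC read at each compound level.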

[2] = system: Citrobacter freundii (CFR) isolates; test: MIC of compounds alone and combined with antibacterials, broth microdilution (CLSI); conditions: for MIC: Citrobacter freundii, read-out: MIC
How it was run: as §1

[3] = system: Morganella morganii (MMO) isolates; test: as above
How it was run: as §1

C=CC1=C(C(=O)O)N2C(=O)[C@@H](NC(=O)/C(=N\OCC(=O)O)c3csc(N)n3)[C@H]2SC1 [FIX, Cefixime]
MIC ATB in combination ([1]; PMI UFR82, AF1 @ 4 μg/mL): <=0.25 μg/mL
MIC ATB in combination ([1]; PMI UFR82, AF1 @ 8 μg/mL): <=0.25 μg/mL
MIC ATB in combination ([1]; PMI UFR120, AF1 @ 4 μg/mL): <=0.25 μg/mL
MIC ATB in combination ([1]; PMI UFR120, AF1 @ 8 μg/mL): <=0.25 μg/mL
MIC ATB in combination ([1]; PMI UFR121, AF1 @ 4 μg/mL): <=0.25 μg/mL
MIC ATB in combination ([1]; PMI UFR121, AF1 @ 8 μg/mL): <=0.25 μg/mL
MIC ATB in combination ([1]; PMI UFR122, AF1 @ 4 μg/mL): <=0.25 μg/mL
MIC ATB in combination ([1]; PMI UFR122, AF1 @ 8 μg/mL): <=0.25 μg/mL
MIC ATB in combination ([1]; PMI UFR123, AF1 @ 4 μg/mL): <=0.25 μg/mL
MIC ATB in combination ([1]; PMI UFR123, AF1 @ 8 μg/mL): <=0.25 μg/mL
MIC ATB in combination ([1]; PMI UFR124, AF1 @ 4 μg/mL): <=0.25 μg/mL
MIC ATB in combination ([1]; PMI UFR124, AF1 @ 8 μg/mL): <=0.25 μg/mL
MIC ATB in combination ([1]; PMI UFR125, AF1 @ 4 μg/mL): <=0.25 μg/mL
MIC ATB in combination ([1]; PMI UFR125, AF1 @ 8 μg/mL): <=0.25 μg/mL
MIC ATB in combination ([1]; PMI UFR126, AF1 @ 4 μg/mL): 0.031 µg/mL
MIC ATB in combination ([1]; PMI UFR126, AF1 @ 8 μg/mL): 0.016 µg/mL
MIC ATB in combination ([1]; PMI UFR127, AF1 @ 4 μg/mL): <=0.25 μg/mL
MIC ATB in combination ([1]; PMI UFR127, AF1 @ 8 μg/mL): <=0.25 μg/mL
MIC ATB in combination ([1]; PMI UFR129, AF1 @ 4 μg/mL): <=0.25 μg/mL
MIC ATB in combination ([1]; PMI UFR129, AF1 @ 8 μg/mL): <=0.25 μg/mL
MIC ATB in combination ([1]; PMI UFR130, AF1 @ 4 μg/mL): <=0.25 μg/mL
MIC ATB in combination ([1]; PMI UFR130, AF1 @ 8 μg/mL): <=0.25 μg/mL
MIC ATB in combination ([1]; PMI UFR237, AF1 @ 4 μg/mL): <=0.25 μg/mL
MIC ATB in combination ([1]; PMI UFR237, AF1 @ 8 μg/mL): <=0.25 μg/mL
MIC ([1]; PMI UFR126, alone): 1020 µg/mL
MIC ([1]; PMI UFR127, alone): > 128 µg/mL
MIC ([1]; strain PMI UFR82 (CMY-2), ATB alone): 8 µg/mL
MIC ([1]; strain PMI UFR82 (CMY-2), CLA @ 4 μg/ml+ ATB): 4 µg/mL
MIC ([1]; strain PMI UFR120 (TEM-1, SHV-11, CTX-M-14), ATB alone): 0.5 µg/mL
MIC ([1]; strain PMI UFR120 (TEM-1, SHV-11, CTX-M-14), CLA @ 4 μg/ml+ ATB): ≤ 0.25 µg/mL
MIC ([1]; strain PMI UFR121 (TEM-1, TEM-52), ATB alone): 128 µg/mL
MIC ([1]; strain PMI UFR121 (TEM-1, TEM-52), CLA @ 4 μg/ml+ ATB): ≤ 0.25 µg/mL
MIC ([1]; strain PMI UFR122 (TEM-1, CTX-M-15), ATB alone): 1 µg/mL
MIC ([1]; strain PMI UFR122 (TEM-1, CTX-M-15), CLA @ 4 μg/ml+ ATB): ≤ 0.25 µg/mL
MIC ([1]; strain PMI UFR123 (CTX-M-1), ATB alone): 128 µg/mL
MIC ([1]; strain PMI UFR123 (CTX-M-1), CLA @ 4 μg/ml+ ATB): ≤ 0.25 µg/mL
MIC ([1]; strain PMI UFR124 (CTX-M-2), ATB alone): > 128 µg/mL
MIC ([1]; strain PMI UFR124 (CTX-M-2), CLA @ 4 μg/ml+ ATB): ≤ 0.25 µg/mL
MIC ([1]; strain PMI UFR125 (CTX-M-71), ATB alone): 0.5 µg/mL
MIC ([1]; strain PMI UFR125 (CTX-M-71), CLA @ 4 μg/ml+ ATB): ≤ 0.25 µg/mL
MIC ([1]; strain PMI UFR126 (TEM-2, PER-1), ATB alone): 1020 µg/mL
MIC ([1]; strain PMI UFR126 (TEM-2, PER-1), CLA @ 4 μg/ml+ ATB): ≤ 0.25 µg/mL
MIC ([1]; strain PMI UFR127 (VEB-1), ATB alone): > 128 µg/mL
MIC ([1]; strain PMI UFR127 (VEB-1), CLA @ 4 μg/ml+ ATB): ≤ 0.25 µg/mL
MIC ([1]; strain PMI UFR129 (TEM-1, VEB-6), ATB alone): > 128 µg/mL
MIC ([1]; strain PMI UFR129 (TEM-1, VEB-6), CLA @ 4 μg/ml+ ATB): ≤ 0.25 µg/mL
MIC ([1]; strain PMI UFR130 (CMY-2), ATB alone): 8 µg/mL
MIC ([1]; strain PMI UFR130 (CMY-2), CLA @ 4 μg/ml+ ATB): 8 µg/mL
MIC ([1]; strain PMI UFR237 (VEB-6), ATB alone): > 128 µg/mL
MIC ([1]; strain PMI UFR237 (VEB-6), CLA @ 4 μg/ml+ ATB): ≤ 0.25 µg/mL
MIC ATB in combination [2]: >128 µg/mL
MIC ATB in combination ([2]; CFR UFR10, AF1 @ 4 μg/mL): <=0.25 μg/mL
MIC ATB in combination ([2]; CFR UFR10, AF1 @ 8 μg/mL): <=0.25 μg/mL
MIC ATB in combination ([2]; CFR UFR11, AF1 @ 4 μg/mL): 8 µg/mL
MIC ATB in combination ([2]; CFR UFR11, AF1 @ 8 μg/mL): 4 µg/mL
MIC ATB in combination ([2]; CFR UFR83, AF1 @ 8 μg/mL): 128 µg/mL
MIC ATB in combination ([2]; CFR UFR146, AF1 @ 4 μg/mL): 1 µg/mL
MIC ATB in combination ([2]; CFR UFR146, AF1 @ 8 μg/mL): 1 µg/mL
MIC ATB in combination ([2]; CFR UFR248, AF1 @ 4 μg/mL): <=0.25 μg/mL
MIC ATB in combination ([2]; CFR UFR248, AF1 @ 8 μg/mL): <=0.25 μg/mL
MIC ATB in combination ([2]; CFR UFR249, AF1 @ 4 μg/mL): <=0.25 μg/mL
MIC ATB in combination ([2]; CFR UFR249, AF1 @ 8 μg/mL): <=0.25 μg/mL
MIC ATB in combination ([2]; CFR UFR250, AF1 @ 4 μg/mL): <=0.25 μg/mL
MIC ATB in combination ([2]; CFR UFR250, AF1 @ 8 μg/mL): <=0.25 μg/mL
MIC ([2]; ATB alone, strain CFR UFR253 (TEM-1, SHV-12, OXA-48)): > 128 µg/mL
MIC ([2]; ATB alone, strain CFR UFR254 (VEB-1b, OXA-48, qnrA)): 32 µg/mL
MIC ([2]; ATB combined with CLA @ 4 μg/ml, strain CFR UFR253 (TEM-1, SHV-12, OXA-48)): > 128 µg/mL
MIC ([2]; ATB combined with CLA @ 4 μg/ml, strain CFR UFR254 (VEB-1b, OXA-48, qnrA)): 16 µg/mL
MIC ([2]; CFR UFR250, alone): > 128 µg/mL
MIC ([2]; strain CFR UFR10 (OXA-48), ATB alone): > 128 µg/mL
MIC ([2]; strain CFR UFR10 (OXA-48), CLA @ 4 μg/ml+ ATB): 32 µg/mL
MIC ([2]; strain CFR UFR11 (TEM-1, OXA-1, OXA-48), ATB alone): 32 µg/mL
MIC ([2]; strain CFR UFR11 (TEM-1, OXA-1, OXA-48), CLA @ 4 μg/ml+ ATB): 32 µg/mL
MIC ([2]; strain CFR UFR83 (TEM-3, AmpC), ATB alone): > 128 µg/mL
MIC ([2]; strain CFR UFR83 (TEM-3, AmpC), CLA @ 4 μg/ml+ ATB): > 128 µg/mL
MIC ([2]; strain CFR UFR146 (TEM-1, KPC-2), ATB alone): 64 µg/mL
MIC ([2]; strain CFR UFR146 (TEM-1, KPC-2), CLA @ 4 μg/ml+ ATB): 64 µg/mL
MIC ([2]; strain CFR UFR248 (CTX-M-15), ATB alone): > 128 µg/mL
MIC ([2]; strain CFR UFR248 (CTX-M-15), CLA @ 4 μg/ml+ ATB): 4 µg/mL
MIC ([2]; strain CFR UFR249 (TEM-1, CTX-M-15), ATB alone): > 128 µg/mL
MIC ([2]; strain CFR UFR249 (TEM-1, CTX-M-15), CLA @ 4 μg/ml+ ATB): 2 µg/mL
MIC ([2]; strain CFR UFR250 (TEM-1, SHV-28, CTX-M-15), ATB alone): > 128 µg/mL
MIC ([2]; strain CFR UFR250 (TEM-1, SHV-28, CTX-M-15), CLA @ 4 μg/ml+ ATB): 2 µg/mL
MIC ATB in combination ([2]; strain CFR UFR253, antibacterial combined with AF1 @ 4 μg/mL): 32 µg/mL
MIC ATB in combination ([2]; strain CFR UFR253, antibacterial combined with AF1 @ 8 μg/mL): 16 µg/mL
MIC ATB in combination ([2]; strain CFR UFR254, antibacterial combined with AF1 @ 4 μg/mL): 0.5 µg/mL
MIC ATB in combination ([2]; strain CFR UFR254, antibacterial combined with AF1 @ 8 μg/mL): <=0.25 μg/mL
MIC ATB in combination ([3]; MMO 200321, AF1 @ 4 μg/mL): 4 µg/mL
MIC ATB in combination ([3]; MMO 200321, AF1 @ 8 μg/mL): 4 µg/mL
MIC ATB in combination ([3]; MMO UFR144, AF1 @ 4 μg/mL): 2 µg/mL
MIC ATB in combination ([3]; MMO UFR144, AF1 @ 8 μg/mL): 2 µg/mL
MIC ATB in combination ([3]; MMO UFR240, AF1 @ 4 μg/mL): <=0.25 μg/mL

Source: patent US20200017496A1 (priority 2017, published 2020)
